Converted amounts (≈) assume the structure as drawn. Where two headings read alike, the source gives them in different places. Starred links: 1 amine or outer side, 2 acyl side, 3 side chain; linkers in the order of their positions; H or OH if unused. Positions of bridges follow the written chain, without caps; N, C: chain ends. Residues, ends and D or L forms follow the SMILES beside them. *: point of attachment. C20 diacid = O=C(O)CCCCCCCCCCCCCCCCCCC(=O)*; γGlu = O=C(O)[C@H](CCC(=O)[*:2])N[*:1]
Tests used:
[1] = Assay (III) ThT fibrillation assay for physical stability; format: physicochemical
Method in brief: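 Freshly prepared formulations, pH-adjusted, with 1 μM ThT; four or eight replicates incubated at 37 °C under 960 rpm orbital shaking. Fluorescence (ex 444/em 485 nm) read every 20 min; […]. Peptide concentration measured by RP-HPLC before and after the run.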

[2] = molecular target: T1, human calcitonin receptor (Homo sapiens, UniProt P30988); experiment: Assay (II)a functional CRE-luciferase assay, human calcitonin receptor; format: cell-based
T1 construct: expressed in transfected cells; host or cells: BHK570
T1 sequence (P30988 25-474): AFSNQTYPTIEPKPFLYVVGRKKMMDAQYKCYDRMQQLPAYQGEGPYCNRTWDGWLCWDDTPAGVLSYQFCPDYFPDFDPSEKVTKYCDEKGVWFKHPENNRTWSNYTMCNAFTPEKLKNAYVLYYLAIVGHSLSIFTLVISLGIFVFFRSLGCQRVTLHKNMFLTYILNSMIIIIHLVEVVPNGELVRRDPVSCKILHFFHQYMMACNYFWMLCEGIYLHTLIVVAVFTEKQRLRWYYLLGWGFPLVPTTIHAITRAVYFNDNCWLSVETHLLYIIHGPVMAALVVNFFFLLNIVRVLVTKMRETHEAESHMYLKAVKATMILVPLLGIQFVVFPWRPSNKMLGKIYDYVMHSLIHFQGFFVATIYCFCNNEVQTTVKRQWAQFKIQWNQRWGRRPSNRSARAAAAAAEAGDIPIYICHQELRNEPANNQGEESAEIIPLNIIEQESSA

[3] = Assay (IV) determination of solubility; format: physicochemical
Method in brief: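 Polypeptide in water (~500 nmol/ml stock) was mixed 1:1 with 100 mM buffers from pH 3.0 to 8.0 (glycylglycine pH 3.0–5.0; bistrispropane pH 6.0–8.0). After 18 hours at room temperature, samples were centrifuged and the polypeptide remaining in solution was quantified by HPLC.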

[4] = molecular target: T2, human amylin receptor (amylin 3(a) receptor: human calcitonin receptor + RAMP-3) (Homo sapiens, UniProt O60896+P30988); experiment: Assay (II)a functional CRE-luciferase assay, human amylin receptor; format: cell-based; conditions: Table 2; BHK amylin 3(a)-receptor/CRE-luc cells
T2 construct: expressed in transfected cells; host or cells: BHK570
T2 sequence (P30988 25-474): T1 sequence (P30988 25-474)
T2 sequence (O60896 24-148 partner): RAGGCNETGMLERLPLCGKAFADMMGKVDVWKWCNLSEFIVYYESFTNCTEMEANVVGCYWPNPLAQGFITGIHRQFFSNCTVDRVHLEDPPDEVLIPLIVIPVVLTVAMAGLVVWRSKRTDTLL

[5] = Table 7, human calcitonin (CTa) receptor
[6] = bistrispropane buffer, pH 6, pH 6.0, read-out: Solubility pH 6.0
[7] = bistrispropane buffer, pH 6.5, pH 6.5, read-out: Solubility pH 6.5
[8] = bistrispropane buffer, pH 7, pH 7.0, 18 hours at room temperature, Table 3, read-out: Solubility pH 7.0
[9] = bistrispropane buffer, pH 7, pH 7.0, read-out: Solubility pH 7.0
[10] = bistrispropane buffer, pH 7.5, pH 7.5, read-out: Solubility pH 7.5
[11] = bistrispropane buffer, pH 8, pH 8.0, read-out: Solubility pH 8.0
[12] = glycylglycine buffer, pH 3, pH 3.0, read-out: Solubility pH 3.0
[13] = glycylglycine buffer, pH 4, pH 4.0, 18 hours at room temperature, Table 2, read-out: Solubility pH 4.0
[14] = glycylglycine buffer, pH 4, pH 4.0, read-out: Solubility pH 4.0
[15] = glycylglycine buffer, pH 5, pH 5.0, read-out: Solubility pH 5.0
[16] = bistrispropane buffer, pH 7, pH 7.0, Table 8, read-out: Solubility pH 7.0

Row | ThT pH 4.0 lag time (h) ([1]; ThT fibrillation assay) | EC50 [2, 5] [pM] | solubility at 18 h [3, 6] [µM] | solubility at 18 h [3, 7] [µM] | solubility at 18 h [3, 8] [µM] | solubility at 18 h [3, 9] [µM] | solubility at 18 h [3, 10] [µM] | solubility at 18 h [3, 11] [µM] | solubility at 18 h [3, 12] [µM] | solubility at 18 h [3, 13] [µM] | solubility at 18 h [3, 14] [µM] | solubility at 18 h [3, 15] [µM] | EC50 [4] [pM] | ThT pH 4.0 lag time ([1]; ThT fibrillation assay) [h] | ThT pH 4.0 lag time ([1]; Table 8) [h] | ThT pH 4.0 lag time ([1]; Table 9) [h] | EC50 ([2]; Table 11, read-out: CTa receptor human EC50) [pM] | solubility at 18 h [3, 16] [µM] | solubility at 18 h ([3]; bistrispropane buffer, pH 7, pH 7.0, Table 9, read-out: Solubility pH 7.0) [µM] | solubility at 18 h ([3]; bistrispropane buffer, pH 7.5, pH 7.5, Table 9, read-out: Solubility pH 7.5) [µM] | SMILES
1 | 23 | 107 | > 200 | > 200 | > 200 | > 200 | > 200 | > 200 | > 200 | > 200 | > 200 | > 200 | 79.5 |  |  |  |  |  |  |  | CC[C@H](C)[C@H](NC(=O)[C@@H]1CCCN1C(=O)CNC(=O)[C@H](Cc1ccccc1)NC(=O)[C@H](CC(N)=O)NC(=O)[C@H](CC(N)=O)NC(=O)[C@H](CO)NC(=O)[C@H](CO)NC(=O)[C@H](Cc1c[nH]cn1)NC(=O)[C@H](Cc1c[nH]cn1)NC(=O)[C@H](CC(C)C)NC(=O)[C@H](Cc1ccccc1)NC(=O)[C@H](CCC(=O)O)NC(=O)[C@H](C)NC(=O)[C@H](CC(C)C)NC(=O)[C@H](CCCNC(=N)N)NC(=O)[C@H](CCC(N)=O)NC(=O)[C@@H](NC(=O)[C@H](C)NC(=O)[C@@H]1CSSC[C@H](NC(=O)CC[C@H](NC(=O)CCCCCCCCCCCCCCCCCCC(=O)O)C(=O)O)C(=O)N[C@@H](CC(N)=O)C(=O)N[C@@H]([C@@H](C)O)C(=O)N[C@@H](C)C(=O)N[C@@H]([C@@H](C)O)C(=O)N1)[C@@H](C)O)C(=O)N[C@@H](CC(C)C)C(=O)N1CCC[C@H]1C(=O)N1CCC[C@H]1C(=O)N[C@H](C(=O)N[C@@H](CC(N)=O)C(=O)N[C@H](C(=O)NCC(=O)N[C@@H](CO)C(=O)N[C@@H](CC(N)=O)C(=O)N[C@H](C(=O)N1CCC[C@H]1C(N)=O)[C@@H](C)O)C(C)C)[C@@H](C)O [Example 104, N-alpha-[(S)-4-Carboxy-4-(19-carboxynonadecanoylamino)butyryl]-[des1,Glu14,His17,Pro37]-pramlintide] ({C20 diacid-γGlu}-CNTATCATQRLAEFLHHSSNNFGPILPPTNVGSNTP-NH2; disulfide 1-6 (inferred))
2 | >45 | 114 | > 200 | 73 (≈ 329 µg/mL) |  | 22 (≈ 99.1 µg/mL) | 46 (≈ 207 µg/mL) | 115 (≈ 518 µg/mL) | > 200 | > 200 | > 200 | > 200 | 129 | >45 |  |  |  |  |  |  | CC[C@H](C)[C@H](NC(=O)[C@@H]1CCCN1C(=O)CNC(=O)[C@H](Cc1ccccc1)NC(=O)[C@H](CC(N)=O)NC(=O)[C@H](CC(N)=O)NC(=O)[C@H](CO)NC(=O)[C@H](CO)NC(=O)[C@H](Cc1c[nH]cn1)NC(=O)[C@H](Cc1c[nH]cn1)NC(=O)[C@H](CC(C)C)NC(=O)[C@H](Cc1ccccc1)NC(=O)[C@H](CCC(=O)O)NC(=O)[C@H](C)NC(=O)[C@H](CC(C)C)NC(=O)[C@H](CCCNC(=N)N)NC(=O)[C@H](CCC(N)=O)NC(=O)[C@@H](NC(=O)[C@H](C)NC(=O)[C@@H]1CSSC[C@H](NC(=O)[C@H](CCCCN)NC(=O)CC[C@H](NC(=O)CCCCCCCCCCCCCCCCCCC(=O)O)C(=O)O)C(=O)N[C@@H](CC(N)=O)C(=O)N[C@@H]([C@@H](C)O)C(=O)N[C@@H](C)C(=O)N[C@@H]([C@@H](C)O)C(=O)N1)[C@@H](C)O)C(=O)N[C@@H](CC(C)C)C(=O)N1CCC[C@H]1C(=O)N1CCC[C@H]1C(=O)N[C@H](C(=O)N[C@@H](CC(N)=O)C(=O)N[C@H](C(=O)NCC(=O)N[C@@H](Cc1c[nH]cn1)C(=O)N[C@@H](CC(N)=O)C(=O)N[C@H](C(=O)N[C@@H](Cc1ccc(O)cc1)C(N)=O)[C@@H](C)O)C(C)C)[C@@H](C)O [Example 115, N-alpha-[(S)-4-Carboxy-4-(19-carboxynonadecanoylamino)butyryl]-[Glu14,His17,His34]-pramlintide] ({C20 diacid-γGlu}-KCNTATCATQRLAEFLHHSSNNFGPILPPTNVGHNTY-NH2; disulfide 2-7 (inferred); C-terminus assumed)
3 | >45 |  | > 200 | > 200 | > 200 | > 200 | > 200 | > 200 | > 200 | > 200 | > 200 | > 200 | 1060 | >45 | >45 | >45 | 3710 | > 200 | > 200 | > 200 | CC[C@H](C)[C@H](NC(=O)[C@@H]1CCCN1C(=O)CNC(=O)[C@H](Cc1ccccc1)NC(=O)[C@H](CC(N)=O)NC(=O)[C@H](CCC(N)=O)NC(=O)[C@H](CO)NC(=O)[C@H](CO)NC(=O)[C@H](Cc1c[nH]cn1)NC(=O)[C@H](CCCNC(=N)N)NC(=O)[C@H](CC(C)C)NC(=O)[C@H](Cc1ccccc1)NC(=O)[C@H](CCC(=O)O)NC(=O)[C@H](C)NC(=O)[C@H](CC(C)C)NC(=O)[C@H](CCCNC(=N)N)NC(=O)[C@H](CCC(N)=O)NC(=O)[C@@H](NC(=O)[C@H](C)NC(=O)[C@@H]1CSSC[C@H](NC(=O)[C@H](CCC(=O)O)NC(=O)[C@H](CCCNC(=N)N)NC(=O)[C@H](CCC(=O)O)NC(=O)CC[C@H](NC(=O)CCCCCCCCCCCCCCCCCCC(=O)O)C(=O)O)C(=O)N[C@@H](CC(N)=O)C(=O)N[C@@H]([C@@H](C)O)C(=O)N[C@@H](C)C(=O)N[C@@H]([C@@H](C)O)C(=O)N1)[C@@H](C)O)C(=O)N[C@@H](CC(C)C)C(=O)N1CCC[C@H]1C(=O)N1CCC[C@H]1C(=O)N[C@H](C(=O)N[C@@H](CCC(N)=O)C(=O)N[C@H](C(=O)NCC(=O)N[C@@H](CO)C(=O)N[C@@H](CCC(N)=O)C(=O)N[C@H](C(=O)N1CCC[C@H]1C(N)=O)[C@@H](C)O)C(C)C)[C@@H](C)O [Example 163, N-alpha-[(S)-4-Carboxy-4-(19-carboxynonadecanoylamino)butyryl]-Glu-Arg-[Glu1,Glu14,Arg17,Gln21,Gln31,Gln35,Pro37]-pramlintide] ({C20 diacid-γGlu}-ERECNTATCATQRLAEFLRHSSQNFGPILPPTQVGSQTP-NH2; disulfide 4-9)
4 | 29 | 72 | 192 (≈ 835 µg/mL) | > 200 | > 200 | > 200 | > 200 | > 200 | > 200 | > 200 | > 200 | > 200 | 121 | 29 | 29 |  |  | > 200 |  |  | CC[C@H](C)[C@H](NC(=O)[C@@H]1CCCN1C(=O)CNC(=O)[C@H](Cc1ccccc1)NC(=O)[C@H](CC(N)=O)NC(=O)[C@H](CCC(N)=O)NC(=O)[C@H](CO)NC(=O)[C@H](CO)NC(=O)[C@H](Cc1c[nH]cn1)NC(=O)[C@H](Cc1c[nH]cn1)NC(=O)[C@H](CC(C)C)NC(=O)[C@H](Cc1ccccc1)NC(=O)[C@H](CCC(=O)O)NC(=O)[C@H](C)NC(=O)[C@H](CC(C)C)NC(=O)[C@H](CCCNC(=N)N)NC(=O)[C@H](CCC(N)=O)NC(=O)[C@@H](NC(=O)[C@H](C)NC(=O)[C@@H]1CSSC[C@H](NC(=O)CNC(=O)CC[C@H](NC(=O)CCCCCCCCCCCCCCCCCCC(=O)O)C(=O)O)C(=O)N[C@@H](CC(N)=O)C(=O)N[C@@H]([C@@H](C)O)C(=O)N[C@@H](C)C(=O)N[C@@H]([C@@H](C)O)C(=O)N1)[C@@H](C)O)C(=O)N[C@@H](CC(C)C)C(=O)N1CCC[C@H]1C(=O)N1CCC[C@H]1C(=O)N[C@H](C(=O)N[C@@H](CC(N)=O)C(=O)N[C@H](C(=O)NCC(=O)N[C@@H](CO)C(=O)N[C@@H](CCC(N)=O)C(=O)N[C@H](C(=O)N1CCC[C@H]1C(N)=O)[C@@H](C)O)C(C)C)[C@@H](C)O [Example 137, N-alpha-[(S)-4-Carboxy-4-(19-carboxynonadecanoylamino)butyryl]-[Gly1,Glu14,His17,Gln21,Gln35,Pro37]-pramlintide] ({C20 diacid-γGlu}-GCNTATCATQRLAEFLHHSSQNFGPILPPTNVGSQTP-NH2; disulfide 2-7)

— patent publication US8722849B2, “Polypeptides” (Novo Nordisk A/S, priority 2011, dated 2014)
